Converted amounts (≈) assume the structure as drawn.
What was measured:
Staphylococcus aureus [1] = assay: Potentiation of vancomycin-induced antibacterial activity against methicillin resistant Staphylococcus aureus Mu50 in presence of vancomycin; format: functional, organism-based
Staphylococcus aureus [2] = assay: Potentiation of vancomycin-induced antibacterial activity against methicillin resistant Staphylococcus aureus Mu50 pretreated with compound followed by vancomycin addition; format: functional, organism-based
Serratia marcescens = assay: Antibacterial activity against Serratia marcescens ATCC 27117 assessed as inhibition of biofilm formation at 50 ug/ml incubated for 24 hrs by crystal violet staining based analysis relative to control; format: functional; set-up: scale not given: the % may be the effect or the level left; conditions: dose 50 µg/ml
Staphylococcus aureus [3] = assay: Antibacterial activity against Staphylococcus aureus ATCC 25923 assessed as inhibition of biofilm formation incubated for 24 hrs by crystal violet staining based analysis relative to control; format: functional; set-up: scale not given: the % may be the effect or the level left
[4] = molecular target: Type 1 fimbrin D-mannose specific adhesin (Escherichia coli K-12) (UniProt P08191); assay: Relative inhibitory potency, ratio of methyl alpha-D-mannose Kd to compound Kd for binding affinity to C-terminal His-tagged truncated Escherichia coli FimH by SPR analysis; conditions: K12
[5] = system: Mycolicibacterium smegmatis; assay: Antimicrobial activity against Mycobacterium smegmatis MC2 155 assessed as planktonic growth inhibition measured after 48 hrs by microplate reader analysis; format: functional
[6] = system: Mycolicibacterium smegmatis; assay: Antibiofilm activity against Mycobacterium smegmatis MC2 155 assessed as […] measured after 48 hrs by crystal violet staining based analysis; format: functional
[7] = molecular target: T1, PA-I galactophilic lectin (Pseudomonas aeruginosa (strain ATCC 15692 / PAO1 / 1C / PRS 101 / LMG12228), UniProt Q05097); assay: Binding affinity to Pseudomonas aeruginosa LecA assessed as dissociation constant by isothermal titration calorimetry
T1 sequence (Q05097 whole entry): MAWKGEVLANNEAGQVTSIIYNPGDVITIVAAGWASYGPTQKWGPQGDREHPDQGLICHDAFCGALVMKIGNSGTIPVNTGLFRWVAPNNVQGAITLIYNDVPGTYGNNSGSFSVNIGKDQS

Staphylococcus aureus [8] = assay: Antibiofilm activity against methicillin-sensitive Staphylococcus aureus UAMS-1 measured after 22 hrs by crystal violet staining based assay; format: functional; conditions: for MIC50: Staphylococcus aureus, UAMS-1
[9] = molecular target: T1, PA-I galactophilic lectin; assay: Inhibition of Pseudomonas aeruginosa LecA incubated for 4 to 6 hrs by fluorescence polarization based competitive binding analysis
Streptococcus agalactiae [10] = assay: Antibiofilm activity against Streptococcus agalactiae GRS90; format: functional; conditions: dose 128 µg/ml; time 22 hrs
Streptococcus agalactiae [11] = assay: Antibiofilm activity against Streptococcus agalactiae GB2; format: functional
Pseudomonas aeruginosa = assay: Antibacterial activity against Pseudomonas aeruginosa PAO1 NCTC 10332 assessed as inhibition of biofilm formation incubated for 24 hrs by crystal violet staining based analysis; format: functional, organism-based; conditions: PAO1 NCTC 10332, 24 h
[12] = molecular target: Type 1 fimbrin D-mannose specific adhesin (Escherichia coli K-12) (UniProt P08191); assay: Relative inhibitory potency, ratio of methyl alpha-D-mannose Kd to compound Kd for binding affinity to Escherichia coli FimH by ELISA assay; conditions: K12
[13] = molecular target: Type 1 fimbrin D-mannose specific adhesin (Escherichia coli K-12) (UniProt P08191); assay: Inhibition of Escherichia coli UTI89 FimH by hemagglutination assay
[14] = Binding affinity to Lactobacillus reuteri Glucosyltransferase assessed as dissociation constant by SPR analysis; set-up: species or system Limosilactobacillus reuteri
[15] = molecular target: T2, Fucose-binding lectin PA-IIL (Pseudomonas aeruginosa (strain ATCC 15692 / DSM 22644 / CIP 104116 / JCM14847 / LMG 12228 / 1C / PRS 101 / PAO1), UniProt Q9HYN5); assay: Binding affinity to Pseudomonas aeruginosa PAO1 LecB assessed as dissociation constant by isothermal titration calorimetry
Target sequence in this assay (Q9HYN5 whole entry): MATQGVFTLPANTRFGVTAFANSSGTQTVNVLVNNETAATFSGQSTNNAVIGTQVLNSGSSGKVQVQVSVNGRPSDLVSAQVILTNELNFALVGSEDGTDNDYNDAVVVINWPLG

[16] = molecular target: T2, Fucose-binding lectin PA-IIL; assay: Inhibition of Pseudomonas aeruginosa PA14 LecB incubated for 22 to 24 hrs by fluorescence polarization based competitive binding analysis
Target sequence in this assay (Q9HYN5 1-115): as the sequence (Q9HYN5 whole entry) above

[17] = molecular target: T2, Fucose-binding lectin PA-IIL; assay: Binding affinity to Pseudomonas aeruginosa PA14 LecB assessed as dissociation constant by isothermal titration calorimetry
Target sequence in this assay (Q9HYN5 1-115): as the sequence (Q9HYN5 whole entry) above

Type 1 fimbrin D-mannose specific adhesin (Escherichia coli K-12), sequence (P08191 whole entry, the tested form may be a part): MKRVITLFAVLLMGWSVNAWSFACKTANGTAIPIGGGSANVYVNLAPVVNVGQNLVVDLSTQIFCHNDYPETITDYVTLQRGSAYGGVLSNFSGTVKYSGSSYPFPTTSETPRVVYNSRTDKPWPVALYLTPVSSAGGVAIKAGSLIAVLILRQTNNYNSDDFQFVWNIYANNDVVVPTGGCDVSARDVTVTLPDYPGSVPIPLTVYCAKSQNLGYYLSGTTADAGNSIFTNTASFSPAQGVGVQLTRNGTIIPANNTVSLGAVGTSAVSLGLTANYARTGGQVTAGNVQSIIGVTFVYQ

Which EC50 (Staphylococcus aureus [1]) does the source give for `O=C(NC[C@]1(O)CO[C@H](CN2C(=O)c3ccccc3C2=O)[C@H]1O)c1ccccc1Cl` here?
The EC50 was 1.27 µM.

What about the EC50 (Staphylococcus aureus [2]) of the same molecule?
Its EC50 is 0.26 µM.

With `CCCCCCC[C@H](CC(=O)N1CCCCC1)OC(=O)C[C@@H](CCCCCCC)O[C@@H]1O[C@@H](C)[C@H](O)[C@@H](O)[C@H]1O[C@@H]1O[C@@H](C)[C@H](O)[C@@H](O)[C@H]1O` as the molecule, how does the Activity (Serratia marcescens) read?
The Activity was greater than 80%.

And the Activity (Staphylococcus aureus [3])?
The Activity was greater than 90%.

With `Cc1cc(=O)oc2ccc(O[C@H]3O[C@H](CO)[C@@H](O)[C@H](O)[C@@H]3O)cc12` as the molecule, how does the Ratio [4] read?
The Ratio was 380.

Which results are given for `OC[C@H]1O[C@H](O[C@H]2O[C@H](CF)[C@@H](O)[C@H](O)[C@H]2O)[C@H](O)[C@@H](O)[C@@H]1O`?
MIC [5]: > 500 µM; MBIC [6]: 100 µM

With `OC[C@H]1O[C@@H](OCc2cn([C@H]3[C@H](O)[C@@H](O)[C@H](n4cc(-c5ccc(-c6cn([C@@H]7O[C@H](CO)[C@@H](n8cc(CO[C@@H]9O[C@H](CO)[C@H](O)[C@H](O)[C@H]9O)nn8)[C@H](O)[C@H]7O)nn6)cc5)nn4)O[C@@H]3CO)nn2)[C@H](O)[C@@H](O)[C@H]1O` as the molecule, how does the Kd [7] read?
The Kd was 0.012 µM.

With `C[C@@H]1O[C@@H](Oc2c(O)cc3c(=O)oc4c(O)c(O)cc5c(=O)oc2c3c45)[C@H](O)[C@H](O)[C@H]1O` as the molecule, how does the MBIC50 (Staphylococcus aureus [8]) read?
The MBIC50 was 64 µg/mL.

What about the MBIC90 (Staphylococcus aureus [8]) of the same molecule?
Its MBIC90 is 128 µg/mL.

And the MIC50 (Staphylococcus aureus [8])?
Its MIC50 is greater than 512 µg/mL.

For `OC[C@H]1O[C@@H](Sc2ccc3ccccc3c2)[C@H](O)[C@@H](O)[C@H]1O`, which EC50 (Staphylococcus aureus [1]) is on record?
The EC50 was 7.97 µM.

Which results are given for `O=C(N/N=C/c1ccc(Oc2ccc(/C=N/NC(=O)c3ccc(O[C@@H]4O[C@H](CO)[C@H](O)[C@H](O)[C@H]4O)cc3)cc2)cc1)c1ccc(O[C@@H]2O[C@H](CO)[C@H](O)[C@H](O)[C@H]2O)cc1`?
Kd [7]: 10.8 µM; IC50 [9]: 5 µM

Which MBIC50 (Streptococcus agalactiae [10]) does the source give for `O=c1oc2c(O[C@@H]3OC[C@H](O)[C@H](O)[C@H]3O)c(O)cc3c(=O)oc4c(O)c(O)cc1c4c23` here?
Its MBIC50 is 512 µg/mL.

What about the MBIC50 (Streptococcus agalactiae [11]) of the same molecule?
The MBIC50 was 512 µg/mL.

For `O=c1oc2c(O[C@@H]3OC[C@@H](O)[C@H](O)[C@H]3O)c(O)cc3c(=O)oc4c(O)c(O)cc1c4c23`, which MBIC50 (Streptococcus agalactiae [10]) is on record?
Its MBIC50 is 512 µg/mL.

And the MBIC50 (Streptococcus agalactiae [11])?
Its MBIC50 is 512 µg/mL.

And the MBIC50 (Staphylococcus aureus [8])?
The MBIC50 was 64 µg/mL.

And the MBIC90 (Staphylococcus aureus [8])?
The MBIC90 was greater than 512 µg/mL.

What about the MIC50 (Staphylococcus aureus [8]) of the same molecule?
Its MIC50 is 32 µg/mL (≈ 73.7 µM).

For `COc1ccc(/C=N/NC(=O)c2ccc(O[C@@H]3O[C@H](CO)[C@H](O)[C@H](O)[C@H]3O)cc2)cc1`, which Kd [7] is on record?
The Kd was 5.6 µM.

And the IC50 [9]?
The IC50 was 55.5 µM.

With `CCCCCCC[C@H](CC(=O)O)OC(=O)C[C@@H](CCCCCCC)O[C@@H]1O[C@@H](C)[C@H](O)[C@@H](O)[C@H]1O[C@@H]1O[C@@H](C)[C@H](O)[C@@H](O)[C@H]1O` as the molecule, how does the IC50 (Pseudomonas aeruginosa) read?
Its IC50 is 75 µg/mL (≈ 115 µM).

Which Ratio [12] does the source give for `CCOc1c(Nc2ccc(O[C@H]3O[C@H](CO)[C@@H](O)[C@H](O)[C@@H]3O)c(Cl)c2)c(=O)c1=O` here?
Its Ratio is 6900.

For `O=C(NC[C@]1(O)CO[C@H](CN2C(=O)c3ccccc3C2=O)[C@H]1O)c1ccccc1`, which EC50 (Staphylococcus aureus [1]) is on record?
The EC50 was 8.29 µM.

And the EC50 (Staphylococcus aureus [2])?
Its EC50 is 5.01 µM.

For `CNC(=O)c1cccc(-c2ccc(O[C@H]3O[C@H](CO)[C@@H](O)[C@H](O)[C@@H]3O)c(C)c2)c1`, which EC>90 [13] is on record?
The EC>90 was 62 nM.

Which Activity (Serratia marcescens) does the source give for `CCCCCCC[C@H](CC(=O)NCc1ccccc1)OC(=O)C[C@@H](CCCCCCC)O[C@@H]1O[C@@H](C)[C@H](O)[C@@H](O)[C@H]1O[C@@H]1O[C@@H](C)[C@H](O)[C@@H](O)[C@H]1O` here?
Its Activity is greater than 80%.

What about the Activity (Staphylococcus aureus [3]) of the same molecule?
Its Activity is greater than 90%.

For `C[C@H]1[C@H](Oc2ccc(/C=N/NC(=O)COc3ccccc3Cl)cc2)O[C@H](CO)[C@@H](O)[C@@H]1O`, which Kd [14] is on record?
Its Kd is 400 µM.

With `C[C@@H]1O[C@H](CNC(=O)/C=C/c2ccccc2)[C@@H](O)[C@H](O)[C@@H]1O` as the molecule, how does the Kd [15] read?
Its Kd is 3.09 µM.

What about the IC50 [16] of the same molecule?
Its IC50 is 2.5 µM.

And the Kd [17]?
Its Kd is 2.59 µM.

For `[N-]=[N+]=N[C@H]1[C@@H](O[C@H]2O[C@H](CO)[C@@H](O)[C@H](O)[C@H]2O)O[C@H](CO)[C@@H](O)[C@@H]1O`, which MIC [5] is on record?
The MIC was greater than 500 µM.

What about the MBIC [6] of the same molecule?
Its MBIC is 500 µM.

For `OC[C@H]1O[C@@H](Oc2ccccc2)[C@H](O)[C@@H](O)[C@H]1O`, which IC50 [9] is on record?
Its IC50 is 13.2 µM.

Which results are given for `O=c1oc2c(O)c(O)cc3c(=O)oc4c(O)c(O)cc1c4c23` [ELLAGIC ACID]?
MBIC50 (Staphylococcus aureus [8]): 128 µg/mL; MBIC90 (Staphylococcus aureus [8]): >512 µg/mL; MIC50 (Staphylococcus aureus [8]): > 512 µg/mL

With `C[C@H]1O[C@H](O[C@H]2O[C@H](CO)[C@@H](O)[C@H](O)[C@H]2O)[C@H](O)[C@@H](O)[C@@H]1O` as the molecule, how does the MIC [5] read?
The MIC was greater than 500 µM.

And the MBIC [6]?
Its MBIC is 100 µM.

Which EC>90 [13] does the source give for `CNC(=O)c1cc(C(=O)NC)cc(-c2ccc(O[C@H]3O[C@H](CO)[C@@H](O)[C@H](O)[C@@H]3O)cc2)c1` here?
Its EC>90 is 375 nM.
